Our source for the cytotoxicity values is ChEMBL document CHEMBL3507680, “University of Dundee, Gates Library screen for HepG2 cell viability”.

This data set is described as follows: Human HepG2 cell viability assay in 384 well format. Type of data set: toxicity, cell-based. Also noted: dose 125 nL, time 70.5 hour; concentration not given beside the values. Particulars: HepG2 cells, read-out: Inhibition.
With `N#Cc1ccc(F)c(CNc2ccc(F)cc2OCCO)c1`, the cytotoxicity at 70.5 h came to 16.6%.

With `CC(C)N1CCC(CNC(=O)CCc2cc(F)ccc2F)C1` (centres undefined), the cytotoxicity at 70.5 h was found to be 14.8%.

As to `Cc1cc(CN(C2CC2)C(C)C(C)C)on1` (centres undefined), the cytotoxicity at 70.5 h stood at 1.68%.

`COCCN(CCOC)C(=O)c1ccn(-c2ccccc2Cl)n1`: the cytotoxicity at 70.5 h was 17.5%.

Turning to `Cc1nc(CN2CCCN(C(=O)c3cccn3C)CC2)cs1`, the cytotoxicity at 70.5 h is 1.17%.

As to `COc1cc2c(nn1)CCN(Cc1nnc(Cc3ccccc3)o1)C2`, the cytotoxicity at 70.5 h was -3.6%.

In the case of `COC(=O)C(C)N(Cc1cc(C)on1)C1CC1` (centres undefined), the cytotoxicity at 70.5 h is -5.22%.

As for `CNC(=O)N1CCOCC1c1c(C)nn(C)c1C` (centres undefined), the cytotoxicity at 70.5 h was 2.35%.

For `Cc1noc(C)c1C(=O)N(C)C(C)c1ccncc1` (centres undefined), the cytotoxicity at 70.5 h was -5.68%.

As to `O=C(NCC1CCOC1)c1cc(-c2ccc(F)cc2)[nH]n1` (centres undefined), the cytotoxicity at 70.5 h is -10.8%.

Consider `O=C1NCCCCC1NC(=O)N1CCCc2ccccc21` (centres undefined), for which the cytotoxicity at 70.5 h is -12.7%.

As to `CC(Oc1cccc(Cl)c1)C(=O)Nc1cnn(CC(=O)NC2CC2)c1` (centres undefined), the cytotoxicity at 70.5 h is -17.2%.

As to `CC(NC(=O)NC1CCN(Cc2ccncc2)CC1)c1cccc(F)c1` (centres undefined), the cytotoxicity at 70.5 h is -6.53%.

With `CN(C)c1cccc(C(=O)Nc2cnn(Cc3ccncc3)c2)c1`, the cytotoxicity at 70.5 h is -11.3%.

On to `CS(=O)(=O)c1ccc(CNC(=O)NCc2cc[nH]n2)cc1`, for which the cytotoxicity at 70.5 h is -12.3%.

Turning to `Cc1ccc(-c2cc(C(=O)NCC3CCOC3)n[nH]2)s1` (centres undefined), the cytotoxicity at 70.5 h amounted to 20.2%.

For the compound `CC(C)c1noc(C(C)N2CCC(c3nc4ccccc4[nH]3)CC2)n1` (centres undefined), the cytotoxicity at 70.5 h is -7.42%.

With `Cc1ccc(F)c2c1N(C(=O)c1ccc(S(C)(=O)=O)cc1)CCC2`, the cytotoxicity at 70.5 h is -10.6%.

Take `Cc1ccc(-c2nc(C(=O)N(C)CC(=O)N(C)C)cs2)c(C)c1`: the cytotoxicity at 70.5 h amounted to 20.9%.

Consider `Cc1noc(C(C)N2CCC(c3nc4ccccc4[nH]3)CC2)n1` (centres undefined), for which the cytotoxicity at 70.5 h was -3.97%.

In the case of `CC(=O)NCc1ccc(C(=O)N2CCCc3c(F)ccc(C)c32)o1`, the cytotoxicity at 70.5 h was -2.6%.

With `CC(C)Cn1cc(NC(=O)c2cccc(N(C)C)c2)cn1`, the cytotoxicity at 70.5 h is -8.55%.

In the case of `O=C1OCCCN1Cc1nc(-c2ccncc2)no1`, the cytotoxicity at 70.5 h is -12.6%.

In the case of `CN(c1ncc(S(N)(=O)=O)s1)C1CCc2ccccc2C1` (centres undefined), the cytotoxicity at 70.5 h is -10%.

As to `CNS(=O)(=O)CC(=O)N(C1CC1)C1Cc2ccccc2C1`, the cytotoxicity at 70.5 h was -13.4%.

Regarding `Cc1ccccc1Cc1nc(CSc2nnc(N)n2C2CC2)no1`, the cytotoxicity at 70.5 h was -12.1%.

As for `CCSc1cc(C(=O)N(CC(F)F)C(C)C)ccn1`, the cytotoxicity at 70.5 h is -3.2%.

For `C=C(C)CN(CC)C(=O)CN1CCCC1C(=O)N(C)C` (centres undefined), the cytotoxicity at 70.5 h was -4.6%.

For `CCn1cc(CN2CCN(C(=O)N3CCOCC3)CC2)cn1`, the cytotoxicity at 70.5 h turned out to be 16.2%.

Turning to `CC(C)CN(C)S(=O)(=O)c1ccc(Cl)cc1C#N`, the cytotoxicity at 70.5 h came out at 34.3%.

As to `CCC(CNC(=O)Cn1ccnc1)Oc1cccc(F)c1` (centres undefined), the cytotoxicity at 70.5 h worked out at 21.1%.

`NC(=O)C(NCc1cccs1)c1ccccc1` (centres undefined): the cytotoxicity at 70.5 h is -9.69%.

`O=C(NCc1cccnc1OCC(F)(F)F)N1CCOCC1`: the cytotoxicity at 70.5 h amounted to 7.44%.

As to `COc1ncccc1CNC(=O)N1CCC(CN2CCOCC2)CC1`, the cytotoxicity at 70.5 h is 13.3%.

As for `CC(C)Oc1ncccc1CNC(=O)N1CCOCC1`, the cytotoxicity at 70.5 h was -14.9%.

Take `Cc1occc1C(=O)NCC(=O)N(C)CCCOc1ccc(F)cc1`: the cytotoxicity at 70.5 h was -6.91%.

For `Cc1cc(C)c(CNC(=O)NCCc2cccnc2)c(=O)[nH]1`, the cytotoxicity at 70.5 h was -10.1%.

Consider `CCCC(C#N)NC(=O)CCCOc1cccc(F)c1` (centres undefined), for which the cytotoxicity at 70.5 h was -9.46%.

Regarding `c1ccc2sc(N3CCCC(Cn4cncn4)C3)nc2c1` (centres undefined), the cytotoxicity at 70.5 h was -6.17%.

`Cn1cccc(NC(=O)NCCc2cccc(O)c2)c1=O`: the cytotoxicity at 70.5 h was determined as 9.38%.

On to `Cn1cccc(NC(=O)NCc2cccc(CO)c2)c1=O`, for which the cytotoxicity at 70.5 h stood at 7.6%.

Consider `O=C(NCCc1nnc[nH]1)Nc1cccc(SC(F)F)c1`, for which the cytotoxicity at 70.5 h was -9.47%.

Regarding `CCS(=O)(=O)N1CCc2c(cccc2NCc2nc(C)c(C)o2)C1`, the cytotoxicity at 70.5 h amounted to 19.1%.

On to `CCC(CNC(=O)c1ccc(C(N)=O)cc1)Oc1cccc(F)c1` (centres undefined), for which the cytotoxicity at 70.5 h is -1.85%.

Turning to `Cc1nc(CC2CCCN(Cc3nc4ccccc4c(=O)[nH]3)C2)no1` (centres undefined), the cytotoxicity at 70.5 h is -7.59%.

Regarding `CCC(O)CN(c1ccccc1)S(=O)(=O)c1cnc(C)s1` (centres undefined), the cytotoxicity at 70.5 h is 18.5%.

As to `CCc1cnc(CNc2cccc3c2CCN(S(=O)(=O)CC)C3)o1`, the cytotoxicity at 70.5 h was -2.87%.

As for `CCN(CC)C(=O)N1CCN(CCc2ccncc2)CC1`, the cytotoxicity at 70.5 h was -7.09%.

On to `CC(=O)c1cccc(OCCCC(=O)NC(C#N)CC(C)C)c1` (centres undefined), for which the cytotoxicity at 70.5 h is -9.77%.

For `CCn1cc(CN2CCCN(C(=O)C3(C)CCOCC3)CC2)cn1`, the cytotoxicity at 70.5 h was -10.2%.

On to `Cc1occc1C(=O)NCC(=O)N(C)CCCOc1ccccc1`, for which the cytotoxicity at 70.5 h was -1.18%.

As for `CCCN(CC1COc2ccccc2O1)C(=O)c1ncoc1CC` (centres undefined), the cytotoxicity at 70.5 h is -7.46%.

As to `O=C(NCc1nc(C2CC2)no1)N1CCOC(c2ccccc2)C1` (centres undefined), the cytotoxicity at 70.5 h was -13.1%.

Turning to `CCN(CC)CC(=O)N1CCN(CCCc2ccncc2)CC1`, the cytotoxicity at 70.5 h is -0.476%.

As for `NC(=O)N1CCCC(C(=O)NCCOc2ccc3c(c2)OCO3)C1` (centres undefined), the cytotoxicity at 70.5 h came to 2.99%.

Take `COC(=O)c1cccc(S(=O)(=O)Nc2ccc(F)c(C(N)=O)c2)c1`: the cytotoxicity at 70.5 h turned out to be 14.1%.

With `CC(NC(=O)Nc1cccnc1N1CCCC1)c1ccccn1` (centres undefined), the cytotoxicity at 70.5 h is -17.8%.

Turning to `NC(=O)CC1CCN(c2ncnc3cccc(F)c23)CC1`, the cytotoxicity at 70.5 h is -3.61%.

As for `CSCc1ccc(CNCCN2CCOCC2)o1`, the cytotoxicity at 70.5 h is -12.8%.

Consider `Cc1oc(C)c(C(=O)NS(=O)(=O)c2ccc3c(c2)OCCCO3)c1C`, for which the cytotoxicity at 70.5 h was -27.5%.

For `Cc1noc(C(C)N2CCN(CCc3ccncc3)CC2)n1` (centres undefined), the cytotoxicity at 70.5 h is -4.19%.

On to `CC(NC(=O)Nc1cccnc1N1CCOCC1)c1ccccc1` (centres undefined), for which the cytotoxicity at 70.5 h is -8.45%.

Consider `N#CC1(NC(=O)c2nccc3ccccc23)CCC2(CC1)OCCO2`, for which the cytotoxicity at 70.5 h is -25.4%.

As to `Cc1noc(C)c1CN1CCC(NC(=O)OC(C)(C)C)CC1`, the cytotoxicity at 70.5 h was -0.745%.

As for `Cc1cc(Cn2cc(C#N)c(=O)c3ccccc32)no1`, the cytotoxicity at 70.5 h is -5.19%.

With `Cc1cc(Cn2cc(C#N)c(=O)c3ccccc32)on1`, the cytotoxicity at 70.5 h is 8.12%.

With `COC(=O)C1CCN(C(=O)NCC(C)Cc2cccs2)CC1` (centres undefined), the cytotoxicity at 70.5 h is -14.5%.

Consider `CCOCCN1CCN(C(C)C(=O)Nc2ccnn2C(C)C)CC1` (centres undefined), for which the cytotoxicity at 70.5 h was -3.46%.

In the case of `CC(NCc1ccco1)c1nnc2n1CCCC2` (centres undefined), the cytotoxicity at 70.5 h was -5.13%.

Turning to `CCN(CC)C(=O)CCNC(=O)N(C)Cc1ccc(SC)c(OC)c1`, the cytotoxicity at 70.5 h is -11.2%.

With `CCCn1nc2c(cc1=O)CN(Cc1ccccn1)CC2`, the cytotoxicity at 70.5 h is 0.0556%.

As to `NCC1(c2cccc(C(F)(F)F)c2)CC1`, the cytotoxicity at 70.5 h was determined as 13.4%.

As for `CC(=O)c1cccc(NC(=O)CN2CCCC(C3OCCO3)C2)c1` (centres undefined), the cytotoxicity at 70.5 h is -7.07%.

Turning to `CC(=O)c1cccc(NC(=O)CN2CCCCC2C)c1` (centres undefined), the cytotoxicity at 70.5 h was -2.56%.

Regarding `CCOc1cc(/C=C/c2ncc(C(=O)NC)s2)ccc1OC`, the cytotoxicity at 70.5 h is -13.2%.

As for `COc1ccc(NC(=O)CCC(C)C)c(N2CCN(C(C)=O)CC2)n1`, the cytotoxicity at 70.5 h is -13.6%.

Take `COC(=O)CCNC(=O)c1nnn(-c2ccc(F)cc2)c1C1CC1`: the cytotoxicity at 70.5 h is -10.2%.

Regarding `COc1ccc(N)c(N2CCN(C(C)=O)CC2)n1`, the cytotoxicity at 70.5 h is -11%.

On to `CNS(=O)(=O)c1cccc(C(C)NCc2cccc(O)c2)c1` (centres undefined), for which the cytotoxicity at 70.5 h is -11.9%.

`Cc1ccc(C(CNCc2ncc[nH]2)N2CCOCC2)s1` (centres undefined): the cytotoxicity at 70.5 h was -12.7%.

For `Cc1ccc(C(CNCc2ccc(C#N)cc2)N2CCOCC2)s1` (centres undefined), the cytotoxicity at 70.5 h was -3.96%.

Consider `CCC(=O)N1CCCN(c2cncc(-n3nc(C)cc3C)n2)CC1`, for which the cytotoxicity at 70.5 h is -4.7%.

`Cc1cc(C)n(-c2cncc(N3CCN(C(=O)C(C)C)CC3)n2)n1`: the cytotoxicity at 70.5 h is -4.92%.

For `COCc1nc2cc(NCc3scnc3C)ccc2o1`, the cytotoxicity at 70.5 h was -5.1%.

With `NC(=O)NC(=O)Cn1ccc2sccc2c1=O`, the cytotoxicity at 70.5 h was -5.03%.

Regarding `COCc1nc2cc(NCc3ncc[nH]3)ccc2o1`, the cytotoxicity at 70.5 h is -3.38%.

With `CNS(=O)(=O)c1cccc(C(C)NCc2ccc(C)o2)c1` (centres undefined), the cytotoxicity at 70.5 h is -2.97%.

With `CCC(=O)N1CCCN(C(=O)C2SCCc3sccc32)CC1` (centres undefined), the cytotoxicity at 70.5 h came out at 3.13%.

Consider `CN(CC(=O)Nc1cccnc1)CC1CCCN1c1cccnn1` (centres undefined), for which the cytotoxicity at 70.5 h was -7.79%.

As for `CNS(=O)(=O)c1cccc(C(C)NCc2ccccc2OC)c1` (centres undefined), the cytotoxicity at 70.5 h is -4.76%.

As to `Cc1cc(NC(=O)CN(C)CC2CCCN2c2cccnn2)n(C)n1` (centres undefined), the cytotoxicity at 70.5 h was -5.26%.

Consider `CCCn1cc(CNCC(c2ccc(C)s2)N2CCOCC2)cn1` (centres undefined), for which the cytotoxicity at 70.5 h was 8.59%.

For `Cc1ccc(C2CCCN2CC(=O)N(CCC#N)c2ccccc2)cc1` (centres undefined), the cytotoxicity at 70.5 h is -7.81%.

As for `Cc1cnn(C2CN(CC(O)COCc3ccc4c(c3)OCO4)C2)c1` (centres undefined), the cytotoxicity at 70.5 h was -0.637%.

With `CCS(=O)(=O)CC(=O)N1CCCC1c1noc(C2CC2)n1` (centres undefined), the cytotoxicity at 70.5 h is -8.04%.

As to `COC(=O)C(C)Sc1nnnn1C1CCOCC1` (centres undefined), the cytotoxicity at 70.5 h is -5.79%.

For the compound `Cc1nc(C)c(CNCc2nnc3n2CCCC3C(F)(F)F)s1` (centres undefined), the cytotoxicity at 70.5 h is -8.57%.

In the case of `COc1ccc(C(=O)NC2CC2)c(OC)c1`, the cytotoxicity at 70.5 h was -11.5%.

As to `COc1ncccc1NC(=O)N1CCCC1c1cc(C)no1` (centres undefined), the cytotoxicity at 70.5 h was -16.3%.

As for `CCNC(=O)NC(=O)CN1CCC(c2c[nH]c3ccc(OC)cc23)CC1`, the cytotoxicity at 70.5 h came to 24.1%.

Regarding `CNC(=O)NC(=O)CSC(C)c1ccccc1F` (centres undefined), the cytotoxicity at 70.5 h was -15.4%.

In the case of `CCOC(=O)NC(=O)CSC(C)c1ccccc1F` (centres undefined), the cytotoxicity at 70.5 h is -14.4%.

For `COc1ccc2[nH]cc(C3CCN(CCC(N)=O)CC3)c2c1`, the cytotoxicity at 70.5 h is -11.2%.

In the case of `Cc1cnn(Cc2cc(F)ccc2F)c1NC(=O)C1CCOCC1`, the cytotoxicity at 70.5 h turned out to be 1.07%.
